The source of these data is Sander's compilation of Henry's law constants (doi:10.1021/es020599y).

This series in a line: Henry solubility constant Hcp at 298.15 K (mol/(m3 Pa)). Particulars: reference: Bamford et al. (2002).

On to `Clc1cc(-c2cc(Cl)c(Cl)c(Cl)c2Cl)c(Cl)c(Cl)c1Cl` [2,2',3,3',4,4',5,5'-octachlorobiphenyl], for which the “Henry solubility constant Hcp” value was 0.1.

With `Clc1ccc(-c2c(Cl)c(Cl)cc(Cl)c2Cl)c(Cl)c1Cl` [2,2',3,3',4,5',6'-heptachlorobiphenyl], the “Henry solubility constant Hcp” value was 0.021.

With `Clc1cc(-c2c(Cl)ccc(Cl)c2Cl)c(Cl)c(Cl)c1Cl` [2,2',3,3',4,5,6'-heptachlorobiphenyl], the “Henry solubility constant Hcp” value was 0.022.

For the molecule `Clc1cccc(-c2ccc(Cl)c(Cl)c2Cl)c1Cl` [2,2',3,3',4-pentachlorobiphenyl], the “Henry solubility constant Hcp” value came out at 0.027.

On to `Clc1cc(Cl)c(Cl)c(-c2c(Cl)ccc(Cl)c2Cl)c1` [2,2',3,3',5,6'-hexachlorobiphenyl], for which the “Henry solubility constant Hcp” value turned out to be 0.015.

For `Clc1cc(Cl)c(Cl)c(-c2cccc(Cl)c2Cl)c1` [2,2',3,3',5-pentachlorobiphenyl], the “Henry solubility constant Hcp” value turned out to be 0.023.

Turning to `Clc1ccc(Cl)c(-c2c(Cl)ccc(Cl)c2Cl)c1Cl` [2,2',3,3',6,6'-hexachlorobiphenyl], the “Henry solubility constant Hcp” value was 0.009.

Consider `Clc1cccc(-c2cccc(Cl)c2Cl)c1Cl` [2,2',3,3'-tetrachlorobiphenyl], for which the “Henry solubility constant Hcp” value came out at 0.036.

As to `Clc1cc(Cl)c(-c2c(Cl)ccc(Cl)c2Cl)cc1Cl` [2,2',3,4',5',6-hexachlorobiphenyl], the “Henry solubility constant Hcp” value came to 0.015.

Take `Clc1cc(Cl)c(-c2cccc(Cl)c2Cl)cc1Cl` [2,2',3,4',5'-pentachlorobiphenyl]: the “Henry solubility constant Hcp” value was found to be 0.023.

For `Clc1cc(Cl)c(Cl)c(-c2cc(Cl)c(Cl)cc2Cl)c1` [2,2',3,4',5,5'-hexachlorobiphenyl], the “Henry solubility constant Hcp” value worked out at 0.017.

As for `Clc1ccc(-c2c(Cl)ccc(Cl)c2Cl)c(Cl)c1` [2,2',3,4',6-pentachlorobiphenyl], the “Henry solubility constant Hcp” value was 0.019.

With `Clc1ccc(-c2cccc(Cl)c2Cl)c(Cl)c1` [2,2',3,4'-tetrachlorobiphenyl], the “Henry solubility constant Hcp” value came to 0.028.

As to `Clc1cc(Cl)c(-c2c(Cl)cc(Cl)c(Cl)c2Cl)cc1Cl` [2,2',3,4,4',5',6-heptachlorobiphenyl], the “Henry solubility constant Hcp” value amounted to 0.017.

In the case of `Clc1cc(Cl)c(-c2cc(Cl)c(Cl)c(Cl)c2Cl)c(Cl)c1` [2,2',3,4,4',5,6'-heptachlorobiphenyl], the “Henry solubility constant Hcp” value came out at 0.017.

For the molecule `Clc1ccc(-c2cc(Cl)c(Cl)c(Cl)c2Cl)c(Cl)c1` [2,2',3,4,4',5-hexachlorobiphenyl], the “Henry solubility constant Hcp” value is 0.045.

For `Clc1ccc(-c2ccc(Cl)c(Cl)c2Cl)c(Cl)c1` [2,2',3,4,4'-pentachlorobiphenyl], the “Henry solubility constant Hcp” value worked out at 0.023.

As for `Clc1ccc(Cl)c(-c2cc(Cl)c(Cl)c(Cl)c2Cl)c1` [2,2',3,4,5,5'-hexachlorobiphenyl], the “Henry solubility constant Hcp” value was 0.02.

Regarding `Clc1ccc(-c2c(Cl)cccc2Cl)c(Cl)c1Cl` [2,2',3,4,6'-pentachlorobiphenyl], the “Henry solubility constant Hcp” value turned out to be 0.022.

Consider `Clc1ccc(Cl)c(-c2c(Cl)ccc(Cl)c2Cl)c1` [2,2',3,5',6-pentachlorobiphenyl], for which the “Henry solubility constant Hcp” value is 0.021.

`Clc1cccc(-c2c(Cl)cccc2Cl)c1Cl` [2,2',3,6'-tetrachlorobiphenyl]: the “Henry solubility constant Hcp” value is 0.03.

Turning to `Clc1ccccc1-c1cccc(Cl)c1Cl` [2,2',3-trichlorobiphenyl], the “Henry solubility constant Hcp” value amounted to 0.042.

`Clc1ccc(-c2cc(Cl)c(Cl)cc2Cl)c(Cl)c1` [2,2',4,4',5-pentachlorobiphenyl]: the “Henry solubility constant Hcp” value turned out to be 0.021.

For `Clc1ccc(-c2cc(Cl)ccc2Cl)c(Cl)c1` [2,2',4,5'-tetrachlorobiphenyl], the “Henry solubility constant Hcp” value was 0.027.

With `Clc1cc(Cl)c(-c2ccccc2Cl)cc1Cl` [2,2',4,5-tetrachlorobiphenyl], the “Henry solubility constant Hcp” value worked out at 0.027.

With `Clc1ccc(-c2ccccc2Cl)c(Cl)c1` [2,2',4-trichlorobiphenyl], the “Henry solubility constant Hcp” value worked out at 0.033.

Turning to `Clc1ccccc1-c1c(Cl)cccc1Cl` [2,2',6-trichlorobiphenyl], the “Henry solubility constant Hcp” value came out at 0.033.

Turning to `Clc1ccccc1-c1ccccc1Cl` [2,2'-dichlorobiphenyl], the “Henry solubility constant Hcp” value turned out to be 0.046.

As for `Clc1ccc(Cl)c(-c2ccc(Cl)c(Cl)c2)c1` [2,3',4',5-tetrachlorobiphenyl], the “Henry solubility constant Hcp” value was 0.033.

As to `Clc1ccc(-c2ccccc2Cl)cc1Cl` [2,3',4'-trichlorobiphenyl], the “Henry solubility constant Hcp” value is 0.036.

As for `Clc1cc(Cl)c(-c2cc(Cl)c(Cl)c(Cl)c2)cc1Cl` [2,3',4,4',5,5'-hexachlorobiphenyl], the “Henry solubility constant Hcp” value turned out to be 0.027.

Consider `Clc1cc(Cl)c(-c2ccc(Cl)c(Cl)c2)c(Cl)c1` [2,3',4,4',6-pentachlorobiphenyl], for which the “Henry solubility constant Hcp” value came out at 0.015.

For the molecule `Clc1cccc(-c2ccc(Cl)cc2Cl)c1` [2,3',4-trichlorobiphenyl], the “Henry solubility constant Hcp” value was 0.033.

Turning to `Clc1cccc(-c2cc(Cl)ccc2Cl)c1` [2,3',5-trichlorobiphenyl], the “Henry solubility constant Hcp” value was 0.035.

On to `Clc1cccc(-c2ccccc2Cl)c1` [2,3'-dichlorobiphenyl], for which the “Henry solubility constant Hcp” value amounted to 0.043.

In the case of `Clc1cc(-c2c(Cl)c(Cl)cc(Cl)c2Cl)cc(Cl)c1Cl` [2,3,3',4',5,5',6-heptachlorobiphenyl], the “Henry solubility constant Hcp” value stood at 0.032.

Regarding `Clc1cc(Cl)c(Cl)c(-c2ccc(Cl)c(Cl)c2)c1` [2,3,3',4',5-pentachlorobiphenyl], the “Henry solubility constant Hcp” value is 0.043.

As for `Clc1ccc(-c2c(Cl)ccc(Cl)c2Cl)cc1Cl` [2,3,3',4',6-pentachlorobiphenyl], the “Henry solubility constant Hcp” value was 0.023.

In the case of `Clc1ccc(-c2cccc(Cl)c2Cl)cc1Cl` [2,3,3',4'-tetrachlorobiphenyl], the “Henry solubility constant Hcp” value turned out to be 0.038.

In the case of `Clc1cc(-c2ccc(Cl)c(Cl)c2Cl)cc(Cl)c1Cl` [2,3,3',4,4',5'-hexachlorobiphenyl], the “Henry solubility constant Hcp” value was determined as 0.034.

Take `Clc1ccc(-c2cc(Cl)c(Cl)c(Cl)c2Cl)cc1Cl` [2,3,3',4,4',5-hexachlorobiphenyl]: the “Henry solubility constant Hcp” value is 0.029.

With `Clc1ccc(-c2c(Cl)cc(Cl)c(Cl)c2Cl)cc1Cl` [2,3,3',4,4',6-hexachlorobiphenyl], the “Henry solubility constant Hcp” value was 0.021.

`Clc1ccc(-c2cc(Cl)cc(Cl)c2Cl)cc1` [2,3,4',5-tetrachlorobiphenyl]: the “Henry solubility constant Hcp” value is 0.025.

As for `Clc1ccc(-c2c(Cl)ccc(Cl)c2Cl)cc1` [2,3,4',6-tetrachlorobiphenyl], the “Henry solubility constant Hcp” value amounted to 0.025.

For the molecule `Clc1ccc(Cl)c(-c2ccccc2)c1Cl` [2,3,6-trichlorobiphenyl], the “Henry solubility constant Hcp” value was found to be 0.033.

Consider `Clc1cccc(-c2ccccc2)c1Cl` [2,3-dichlorobiphenyl], for which the “Henry solubility constant Hcp” value worked out at 0.043.

`Clc1ccc(-c2cc(Cl)ccc2Cl)cc1` [2,4',5-trichlorobiphenyl]: the “Henry solubility constant Hcp” value came out at 0.034.

As to `Clc1ccc(-c2ccccc2)c(Cl)c1` [2,4-dichlorobiphenyl], the “Henry solubility constant Hcp” value turned out to be 0.037.

Take `Clc1cc(-c2cc(Cl)c(Cl)c(Cl)c2)cc(Cl)c1Cl` [3,3',4,4',5,5'-hexachlorobiphenyl]: the “Henry solubility constant Hcp” value is 0.047.

On to `Clc1ccc(-c2cccc(Cl)c2)cc1` [3,4'-dichlorobiphenyl], for which the “Henry solubility constant Hcp” value turned out to be 0.049.

Regarding `Clc1ccc(-c2cc(Cl)c(Cl)c(Cl)c2)cc1` [3,4,4',5-tetrachlorobiphenyl], the “Henry solubility constant Hcp” value was 0.041.
